We go through one substance from patent publication US20050234531A1, “Method to treat age-related macular degeneration” (priority 2001, published 2005).

This data set concerns age-related macular degeneration (AMD). Description: PDT with verteporfin combined with scatter threshold laser coagulation therapy in eighteen patients with AMD or early stage AMD. It counts as in vivo. As to the method: Eighteen patients ranging in age from 50-80 years of age, and either previously diagnosed with AMD or with early stage AMD have been treated using the inventive method. All of these patients experienced at least some loss of vision pre-treatment.
For PDT, verteporfin was the photosensitive agent and was administered intravenously at a dose of 1-2 mg/kg. Verteporfin was activated using a coherent laser with the red beam (krypton) at a wavelength of 640 nm. For laser coagulation therapy, the spot size was 200 μm and the duration was 0.4 seconds. The number of spots applied was between 150 and 350. The interval between PDT and laser coagulation therapy was 5 minutes to 24 hours.

Take verteporfin: the “Patients with improved visual acuity, as assessed by accurate reading of a standard vision chart” value (verteporfin 1-2 mg/kg intravenously, activated at 640 nm, plus laser coagulation therapy 5 minutes to 24 hours apart, within six to eight weeks post-treatment, 18 patients) is given as “fifty”. Also, the “Incidence of the need for retreatment” value (verteporfin PDT plus laser coagulation therapy, entire patient population treated) is on record as “zero”. Further, the “Patients whose vision remained stable, assessed by no further loss of visual acuity” value (verteporfin PDT plus laser coagulation therapy, over six to nine months, 18 patients) is on record as “fifty”. Besides, the “Cases of laser-induced neovascularizations” value (verteporfin PDT plus laser coagulation therapy, patients receiving the inventive treatment) is on record as “no cases”.
